# Laboratory results reported in US10882857B2, “Bicyclic compounds as ATX inhibitors” (Hoffmann-La Roche Inc., priority 2017, dated 2021).
# Biological target: ATX (human His-tagged) (Homo sapiens (Human), UniProt Q13822)
# Assay: Human ATX enzyme inhibition assay (fluorescence quenching, MR121 substrate)
# Type: biochemical
# Details: 30 nM ATX, 1 μM MR121 substrate, 30° C.
# Description: Human ATX Enzyme Inhibition Assay
# ATX inhibition was measured by a fluorescence quenching assay using a specifically labeled substrate analogue (MR121 substrate). To obtain this MR121 substrate, BOC and TBS protected 6-amino-hexanoic acid (R)-3-({2-[3-(2-{2-[2-(2-amino-ethoxy)-ethoxy]-ethoxy-}ethoxy)-propionylamino]-ethoxy}-hydroxy-phosphoryloxy)-2-hydroxy-propyl ester (Ferguson et al., Org Lett 2006, 8 (10), 2023) was labeled with MR121 fluorophore (CAS 185308-24-1, 1-(3-carboxypropyl)-11-ethyl-1,2,3,4,8,9,10,11-octahydro-dipyrido[3,2-b:2′,3′-i]phenoxazin-13-ium) on the free amine of the ethanolamine side and then, after deprotection, subsequently with tryptophan on the side of the aminohexanoic acid.
# Assay working solutions were made as follows:
# Assay buffer (50 mM Tris-HCl, 140 mM NaCl, 5 mM KCl, 1 mM CaCl2, 1 mM MgCl2, 0.01% Triton-X-100, pH 8.0;
# ATX solution: ATX (human His-tagged) stock solution (1.08 mg/mL in 20 mM bicine, pH 8.5, 0.15 M NaCl, 10% glycerol, 0.3% CHAPS, 0.02% NaN3), diluted to 1.4-2.5× final concentration in assay buffer;
# MR121 substrate solution: MR121 substrate stock solution (800 μM MR121 substrate in DMSO), diluted to 2-5× final concentration in assay buffer.
# Test compounds (10 mM stock in DMSO, 8 μL) were obtained in 384 well sample plates (Corning Costar #3655) and diluted with 8 μL DMSO. Row-wise serial dilutions were made by transferring 8 μL cpd solution to the next row up to row O. The compound and control solutions were mixed five times and 2 μL were transferred to 384 well assay plates (Corning Costar #3702). Then, 15 μL of 41.7 nM ATX solution was added (30 nM final concentration), mixed five times and then incubated for 15 minutes at 30° C. 10 μL of MR121 substrate solution was added (1 μM final concentration), mixed 30 times and then incubated for 15 minutes at 30° C.
# Fluorescence was then measured every 2 minutes for 1 hour (Perkin Elmer plate: vision multimode reader); light intensity: 2.5%; exp. time: 1.4 sec, Filter: Fluo_630/690 nm) and IC50 values were calculated from these readouts.
row,SMILES,IC50
1,"O=C(c1cc(OCC2CCOCC2)nc(C2CC2)c1)N1CCc2cc(C(=O)N3CCc4[nH]nnc4C3)ccc2C1 [Example 1, [2-[2-Cyclopropyl-6-(oxan-4-ylmethoxy)pyridine-4-carbonyl]-3,4-dihydro-1H-isoquinolin-6-yl]-(1,4,6,7-tetrahydrotriazolo[4,5-c]pyridin-5-yl)methanone]",2 nM
2,"O=C(c1cc(OCC2CCOCC2)nc(C2CC2)c1)N1Cc2nc(C(=O)N3CCc4[nH]nnc4C3)oc2C1 [Example 1.01, [2-cyclopropyl-6-(oxan-4-ylmethoxy)pyridin-4-yl]-[2-(1,4,6,7-tetrahydrotriazolo[4,5-c]pyridine-5-carbonyl)-4,6-dihydropyrrolo[3,4-d][1,3]oxazol-5-yl]methanone]",2 nM
3,"O=C(c1cc(OCC2CCOCC2)nc(C2CC2)c1)N1Cc2ccc(C(=O)N3CCc4c(O)noc4C3)cc2C1 [Example 2, [2-[2-Cyclopropyl-6-(oxan-4-ylmethoxy)pyridine-4-carbonyl]-1,3-dihydroisoindol-5-yl]-(3-hydroxy-5,7-dihydro-4H-[1,2]oxazolo[5,4-c]pyridin-6-yl)methanone]",24 nM
4,"NS(=O)(=O)C1CCN(C(=O)c2ccc3c(c2)CN(C(=O)c2cc(OCC4CCOCC4)nc(C4CC4)c2)C3)CC1 [Example 2.01, 1-[2-[2-cyclopropyl-6-(oxan-4-ylmethoxy)pyridine-4-carbonyl]-1,3-dihydroisoindole-5-carbonyl]piperidine-4-sulfonamide]",10 nM
5,"O=C(c1cc(OCC2CCOCC2)nc(C2CC2)c1)N1Cc2ccc(C(=O)N3CCc4onc(O)c4C3)cc2C1 [Example 2.02, [2-[2-cyclopropyl-6-(oxan-4-ylmethoxy)pyridine-4-carbonyl]-1,3-dihydroisoindol-5-yl]-(3-hydroxy-6,7-dihydro-4H-[1,2]oxazolo[4,5-c]pyridin-5-yl)methanone]",7 nM
6,"CC(C)(C)C(=O)Nc1cc(C(F)(F)F)cnc1COC(=O)N1Cc2ccc(C(=O)N3CCC(S(N)(=O)=O)CC3)cc2C1 [Example 2.03, [3-(2,2-dimethylpropanoylamino)-5-(trifluoromethyl)pyridin-2-yl]methyl 5-(4-sulfamoylpiperidine-1-carbonyl)-1,3-dihydroisoindole-2-carboxylate]",7 nM
7,"CC(C)(C)C(=O)Nc1cc(C(F)(F)F)cnc1COC(=O)N1Cc2ccc(C(=O)N3CCc4c(O)noc4C3)cc2C1 [Example 2.04, [3-(2,2-dimethylpropanoylamino)-5-(trifluoromethyl)pyridin-2-yl]methyl 5-(3-hydroxy-5,7-dihydro-4H-[1,2]oxazolo[5,4-c]pyridine-6-carbonyl)-1,3-dihydroisoindole-2-carboxylate]",7 nM
8,"CC(C)(C)C(=O)Nc1cc(C(F)(F)F)cnc1COC(=O)N1Cc2ccc(C(=O)N3CCc4onc(O)c4C3)cc2C1 [Example 2.05, [3-(2,2-dimethylpropanoylamino)-5-(trifluoromethyl)pyridin-2-yl]methyl 5-(3-hydroxy-6,7-dihydro-4H-[1,2]oxazolo[4,5-c]pyridine-5-carbonyl)-1,3-dihydroisoindole-2-carboxylate]",4 nM
9,"CC(C)(C)C(=O)Nc1cc(C(F)(F)F)cnc1COC(=O)N1Cc2nc(C(=O)N3CCC(S(N)(=O)=O)CC3)oc2C1 [Example 2.06, [3-(2,2-dimethylpropanoylamino)-5-(trifluoromethyl)pyridin-2-yl]methyl 2-(4-sulfamoylpiperidine-1-carbonyl)-4,6-dihydropyrrolo[3,4-d][1,3]oxazole-5-carboxylate]",1 nM
10,"O=C(c1cc(OCC2CCOCC2)nc(C2CC2)c1)N1Cc2nc(C(=O)N3CCc4c(O)noc4C3)oc2C1 [Example 3, [2-Cyclopropyl-6-(oxan-4-ylmethoxy)pyridin-4-yl]-[2-(3-hydroxy-5,7-dihydro-4H-[1,2]oxazolo[5,4-c]pyridine-6-carbonyl)-4,6-dihydropyrrolo[3,4-d][1,3]oxazol-5-yl]methanone]",5 nM
11,"CC(C)(C)C(=O)Nc1cc(C(F)(F)F)cnc1COC(=O)N1Cc2nc(C(=O)N3CCc4[nH]nnc4C3)oc2C1 [Example 4, [3-(2,2-Dimethylpropanoylamino)-5-(trifluoromethyl)pyridin-2-yl]methyl 2-(1,4,6,7-tetrahydrotriazolo[4,5-c]pyridine-5-carbonyl)-4,6-dihydropyrrolo[3,4-d][1,3]oxazole-5-carboxylate]",1 nM
12,"CC(C)(C)C(=O)Nc1cc(C#N)c(Cl)cc1COC(=O)N1Cc2nc(C(=O)N3CCc4c(O)noc4C3)oc2C1 [Example 4.01, [5-chloro-4-cyano-2-(2,2-dimethylpropanoylamino)phenyl]methyl 2-(3-hydroxy-5,7-dihydro-4H-[1,2]oxazolo[5,4-c]pyridine-6-carbonyl)-4,6-dihydropyrrolo[3,4-d][1,3]oxazole-5-carboxylate]",7 nM

# The next lines start with the values.
row,IC50,SMILES
1,2 nM,"NS(=O)(=O)C1CCN(C(=O)c2nc3c(s2)CN(C(=O)c2cc(OCC4CCOCC4)nc(C4CC4)c2)C3)CC1 [Example 3.01, 1-[5-[2-cyclopropyl-6-(oxan-4-ylmethoxy)pyridine-4-carbonyl]-4,6-dihydropyrrolo[3,4-d][1,3]thiazole-2-carbonyl]piperidine-4-sulfonamide]"
2,7 nM,"NS(=O)(=O)C1CCN(C(=O)c2cc3c(s2)CN(C(=O)c2cc(OCC4CCOCC4)nc(C4CC4)c2)C3)CC1 [Example 3.02, 1-[5-[2-cyclopropyl-6-(oxan-4-ylmethoxy)pyridine-4-carbonyl]-4,6-dihydrothieno[2,3-c]pyrrole-2-carbonyl]piperidine-4-sulfonamide]"
3,1 nM,"CC(C)(C)C(=O)Nc1cc(C(F)(F)F)cnc1COC(=O)N1Cc2cc(C(=O)N3CCC(S(N)(=O)=O)CC3)sc2C1 [Example 4.02, [3-(2,2-Dimethylpropanoylamino)-5-(trifluoromethyl)pyridin-2-yl]methyl 2-(4-sulfamoylpiperidine-1-carbonyl)-4,6-dihydrothieno[2,3-c]pyrrole-5-carboxylate]"
